“And” between values parts separate entries of the source, which are not always exact repeats. Equal values may be shown once.
Legend:
EcGUS = EcGUS (Escherichia coli, UniProt P05804); experiment: Isothermal titration calorimetry, EcGUS; assay type: binding; settings: for entropy contribution to binding: sign (positive = favourable); for Kd / ΔG / ΔH / —TΔS: EcGUS, 298 K
[1] = molecular target: LgGUS (Lactobacillus gasseri GUS) (Lactobacillus gasseri, UniProt Q9AHJ8); experiment: GUS inhibition assay, hydrolysis of 4-methylumbelliferyl-β-glucuronide, LgGUS; assay type: biochemical; parameters: GUS activity (hydrolysis rate of MUG) / 1/v: unit not given here
HsGUS (human GUS) = molecular target: T1, HsGUS (human GUS) (Homo sapiens, UniProt P08236); experiment: GUS inhibition assay, hydrolysis of 4-methylumbelliferyl-β-glucuronide, HsGUS; assay type: biochemical; parameters: GUS activity (hydrolysis rate of MUG): unit not given here
T1 construct: HsGUS was prepared as described[37]; made in house
T1 sequence (P08236 23-651): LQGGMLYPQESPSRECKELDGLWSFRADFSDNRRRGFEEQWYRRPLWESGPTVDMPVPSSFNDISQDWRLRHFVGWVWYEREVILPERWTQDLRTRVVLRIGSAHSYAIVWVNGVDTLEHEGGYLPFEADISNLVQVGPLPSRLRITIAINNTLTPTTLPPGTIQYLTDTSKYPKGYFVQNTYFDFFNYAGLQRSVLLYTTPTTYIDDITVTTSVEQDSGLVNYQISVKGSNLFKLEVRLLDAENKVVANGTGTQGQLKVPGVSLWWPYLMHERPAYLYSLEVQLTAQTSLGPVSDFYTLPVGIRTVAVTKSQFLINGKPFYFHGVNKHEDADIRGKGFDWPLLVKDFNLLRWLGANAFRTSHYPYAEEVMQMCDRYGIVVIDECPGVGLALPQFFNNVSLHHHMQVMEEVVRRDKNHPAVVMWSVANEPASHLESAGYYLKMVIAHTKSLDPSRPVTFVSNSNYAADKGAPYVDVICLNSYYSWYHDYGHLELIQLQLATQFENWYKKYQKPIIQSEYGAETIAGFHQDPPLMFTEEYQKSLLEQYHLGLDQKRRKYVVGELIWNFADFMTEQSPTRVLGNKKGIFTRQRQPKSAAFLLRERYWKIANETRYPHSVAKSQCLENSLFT

[2] = Tris buffer (250 mM NaCl, 20 mM Tris, pH 8.0)
[3] = phosphate buffer (250 mM NaCl, 20 mM KH2PO4, 100 mM Na2HPO4, pH 8.0)
[4] = [Inhibitor 2] = 10 μM, [MUG] 0.0375 mM
[5] = [Inhibitor 2] = 10 μM, [MUG] 0.075 mM
[6] = [Inhibitor 2] = 10 μM, [MUG] 0.15 mM
[7] = [Inhibitor 2] = 10 μM, [MUG] 0.3 mM
[8] = [Inhibitor 2] = 20 μM, [MUG] 0.0375 mM
[9] = [Inhibitor 2] = 20 μM, [MUG] 0.075 mM
[10] = [Inhibitor 2] = 20 μM, [MUG] 0.15 mM
[11] = [Inhibitor 2] = 20 μM, [MUG] 0.3 mM
[12] = [Inhibitor 2] = 40 μM, [MUG] 0.0375 mM
[13] = [Inhibitor 2] = 40 μM, [MUG] 0.075 mM
[14] = [Inhibitor 2] = 40 μM, [MUG] 0.15 mM
[15] = [Inhibitor 2] = 40 μM, [MUG] 0.3 mM
[16] = [Inhibitor 2] = 80 μM, [MUG] 0.0375 mM
[17] = [Inhibitor 2] = 80 μM, [MUG] 0.075 mM
[18] = [Inhibitor 2] = 80 μM, [MUG] 0.15 mM
[19] = [Inhibitor 2] = 80 μM, [MUG] 0.3 mM

LgGUS (Lactobacillus gasseri GUS), sequence (Q9AHJ8 1-598): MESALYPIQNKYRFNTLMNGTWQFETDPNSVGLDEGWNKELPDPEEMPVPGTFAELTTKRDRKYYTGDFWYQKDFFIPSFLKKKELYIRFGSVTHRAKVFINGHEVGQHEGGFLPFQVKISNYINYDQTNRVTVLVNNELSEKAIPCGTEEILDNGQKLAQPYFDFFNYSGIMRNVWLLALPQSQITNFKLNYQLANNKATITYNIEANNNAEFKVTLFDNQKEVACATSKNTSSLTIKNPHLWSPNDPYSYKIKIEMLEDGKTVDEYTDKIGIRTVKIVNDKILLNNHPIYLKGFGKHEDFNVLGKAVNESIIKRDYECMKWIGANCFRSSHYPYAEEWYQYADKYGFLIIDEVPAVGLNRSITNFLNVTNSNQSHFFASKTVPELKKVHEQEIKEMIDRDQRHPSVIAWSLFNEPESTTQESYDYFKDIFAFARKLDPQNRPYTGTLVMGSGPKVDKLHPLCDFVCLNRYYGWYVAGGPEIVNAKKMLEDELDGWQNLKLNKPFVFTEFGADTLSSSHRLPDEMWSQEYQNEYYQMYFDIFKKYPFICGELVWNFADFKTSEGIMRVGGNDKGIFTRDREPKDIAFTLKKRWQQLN
EcGUS, sequence (P05804 whole entry): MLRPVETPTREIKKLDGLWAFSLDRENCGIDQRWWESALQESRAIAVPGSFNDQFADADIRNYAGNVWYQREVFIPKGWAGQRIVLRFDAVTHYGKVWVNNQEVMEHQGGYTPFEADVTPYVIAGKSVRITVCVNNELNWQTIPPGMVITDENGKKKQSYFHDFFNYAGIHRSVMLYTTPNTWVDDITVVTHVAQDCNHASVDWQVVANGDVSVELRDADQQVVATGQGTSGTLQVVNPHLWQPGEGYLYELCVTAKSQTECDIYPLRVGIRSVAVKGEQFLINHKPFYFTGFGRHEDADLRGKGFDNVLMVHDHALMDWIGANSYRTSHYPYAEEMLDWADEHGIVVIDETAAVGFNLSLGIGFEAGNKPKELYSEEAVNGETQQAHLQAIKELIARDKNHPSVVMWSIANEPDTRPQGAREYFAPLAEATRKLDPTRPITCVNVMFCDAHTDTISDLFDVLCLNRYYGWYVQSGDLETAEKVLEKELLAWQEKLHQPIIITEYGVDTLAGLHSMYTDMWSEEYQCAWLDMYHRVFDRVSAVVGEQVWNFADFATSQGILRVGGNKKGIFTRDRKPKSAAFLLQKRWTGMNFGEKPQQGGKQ

SMILES: CCC[C@@H]1NC[C@@H](O)[C@H](O)[C@H]1C(=O)O [Inhibitor 2, C6-propyl UIFG]
- ΔΔH1–2 (enthalpy penalty of 2 relative to 1) (EcGUS; EcGUS in Tris buffer): +6.2 kcal mol^−1
- –TΔΔS1–2 (2 relative to 1) (EcGUS; EcGUS in Tris buffer): –5.6 kcal mol^−1
- entropy contribution to binding (EcGUS; EcGUS in Tris buffer): +7.1 kcal mol^−1
- ΔΔH1–2 (enthalpy penalty of 2 relative to 1) (EcGUS; EcGUS in phosphate buffer): +5.5 kcal mol^−1
- –TΔΔS1–2 (2 relative to 1) (EcGUS; EcGUS in phosphate buffer): –4.6 kcal mol^−1
- entropy contribution to binding (EcGUS; EcGUS in phosphate buffer): +5.0 kcal mol^−1
- Kd (EcGUS; [2]): 60 ± 4.9 nM
- ΔG (EcGUS; [2]): –10.01 ± 0.58 kcal/mol
- ΔH (EcGUS; [2]): –2.90 ± 0.23 kcal/mol
- —TΔS (EcGUS; [2]): –7.11 ± 0.82 kcal/mol
- Kd (EcGUS; [3]): 280 ± 50 nM
- ΔG (EcGUS; [3]): –8.96 ± 0.09 kcal/mol
- ΔH (EcGUS; [3]): –3.99 ± 0.06 kcal/mol
- —TΔS (EcGUS; [3]): –4.97 ± 0.15 kcal/mol
- Ki ([1]; LgGUS, 50 mM sodium acetate pH 4.5, 37 °C): 18.8 ± 3.92 µM
- 1/v [1, 4]: 0.2959 and 0.2974 and 0.2686
- GUS activity (hydrolysis rate of MUG) [1, 4]: 4192.53 and 4171.53 and 4614.39
- 1/v [1, 5]: 0.2107 and 0.1906 and 0.2077
- GUS activity (hydrolysis rate of MUG) [1, 5]: 5869.97 and 6487.03 and 5954.69
- 1/v [1, 6]: 0.1628 and 0.149 and 0.1679
- GUS activity (hydrolysis rate of MUG) [1, 6]: 7584.59 and 8286.19 and 7358.86
- 1/v [1, 7]: 0.1383 and 0.1264 and 0.1356
- GUS activity (hydrolysis rate of MUG) [1, 7]: 8920.98 and 9760.49 and 9099.17
- 1/v [1, 8]: 0.3501 and 0.314 and 0.3449
- GUS activity (hydrolysis rate of MUG) [1, 8]: 3549.69 and 3952.79 and 3602.4
- 1/v [1, 9]: 0.2306 and 0.2185 and 0.2316
- GUS activity (hydrolysis rate of MUG) [1, 9]: 5367.33 and 5663.13 and 5345.77
- 1/v [1, 10]: 0.1785 and 0.1636 and 0.1746
- GUS activity (hydrolysis rate of MUG) [1, 10]: 6921.34 and 7548.25 and 7076.25
- 1/v [1, 11]: 0.1408 and 0.1323 and 0.1394
- GUS activity (hydrolysis rate of MUG) [1, 11]: 8767.09 and 9326.73 and 8851.1
- 1/v [1, 12]: 0.4229 and 0.3884 and 0.4078
- GUS activity (hydrolysis rate of MUG) [1, 12]: 2945.2 and 3203.76 and 3052.97
- 1/v [1, 13]: 0.2757 and 0.2635 and 0.2787
- GUS activity (hydrolysis rate of MUG) [1, 13]: 4496.55 and 4702.63 and 4448.51
- 1/v [1, 14]: 0.1987 and 0.186 and 0.1977
- GUS activity (hydrolysis rate of MUG) [1, 14]: 6224 and 6644.75 and 6252.92
- 1/v [1, 15]: 0.1513 and 0.1407 and 0.1527
- GUS activity (hydrolysis rate of MUG) [1, 15]: 8157.58 and 8770.43 and 8083.43
- 1/v [1, 16]: 0.6318 and 0.5917 and 0.6372
- GUS activity (hydrolysis rate of MUG) [1, 16]: 1984.8 and 2116.68 and 1968.46
- 1/v [1, 17]: 0.3742 and 0.3532 and 0.3763
- GUS activity (hydrolysis rate of MUG) [1, 17]: 3323.3 and 3518.37 and 3305.44
- 1/v [1, 18]: 0.2434 and 0.2308 and 0.2421
- GUS activity (hydrolysis rate of MUG) [1, 18]: 5087.86 and 5362.93 and 5115.03
- 1/v [1, 19]: 0.1723 and 0.1599 and 0.1688
- GUS activity (hydrolysis rate of MUG) [1, 19]: 7171.31 and 7724.06 and 7316.31
- Ki (HsGUS (human GUS); HsGUS, 50 mM sodium acetate pH 4.5, 37 °C): 36.1 ± 7.5 µM
- GUS activity (hydrolysis rate of MUG) (HsGUS (human GUS); [Inhibitor 2] =2 μM, [MUG] 0.1 mM): 948.853 and 951.385
- GUS activity (hydrolysis rate of MUG) (HsGUS (human GUS); [Inhibitor 2] =2 μM, [MUG] 0.2 mM): 1632.03 and 1685.82
- GUS activity (hydrolysis rate of MUG) (HsGUS (human GUS); [Inhibitor 2] =2 μM, [MUG] 0.4 mM): 2642.25 and 2523.4
- GUS activity (hydrolysis rate of MUG) (HsGUS (human GUS); [Inhibitor 2] =2 μM, [MUG] 0.6 mM): 3352.21 and 3311.67
- GUS activity (hydrolysis rate of MUG) (HsGUS (human GUS); [Inhibitor 2] =2 μM, [MUG] 0.8 mM): 3926.69 and 3841.33
- GUS activity (hydrolysis rate of MUG) (HsGUS (human GUS); [Inhibitor 2] =2 μM, [MUG] 1.2 mM): 4682.68 and 4814.95
- GUS activity (hydrolysis rate of MUG) (HsGUS (human GUS); [Inhibitor 2] =2 μM, [MUG] 1.6 mM): 5075.17 and 5261.75
- GUS activity (hydrolysis rate of MUG) (HsGUS (human GUS); [Inhibitor 2] =2 μM, [MUG] 2 mM): 5616.94 and 5799.63
- GUS activity (hydrolysis rate of MUG) (HsGUS (human GUS); [Inhibitor 2] =5 μM, [MUG] 0.1 mM): 870.401 and 901.046
- GUS activity (hydrolysis rate of MUG) (HsGUS (human GUS); [Inhibitor 2] =5 μM, [MUG] 0.2 mM): 1774.12 and 1609.49
- GUS activity (hydrolysis rate of MUG) (HsGUS (human GUS); [Inhibitor 2] =5 μM, [MUG] 0.4 mM): 2566.62 and 2497.87
- GUS activity (hydrolysis rate of MUG) (HsGUS (human GUS); [Inhibitor 2] =5 μM, [MUG] 0.6 mM): 3244.91 and 3390.27
- GUS activity (hydrolysis rate of MUG) (HsGUS (human GUS); [Inhibitor 2] =5 μM, [MUG] 0.8 mM): 3688.45 and 3865.44
- GUS activity (hydrolysis rate of MUG) (HsGUS (human GUS); [Inhibitor 2] =5 μM, [MUG] 1.2 mM): 4481.74 and 4357.11
- GUS activity (hydrolysis rate of MUG) (HsGUS (human GUS); [Inhibitor 2] =5 μM, [MUG] 1.6 mM): 5234.04 and 5031.9
- GUS activity (hydrolysis rate of MUG) (HsGUS (human GUS); [Inhibitor 2] =5 μM, [MUG] 2 mM): 5683.23 and 5771.06
- GUS activity (hydrolysis rate of MUG) (HsGUS (human GUS); [Inhibitor 2] =10 μM, [MUG] 0.1 mM): 788.919 and 835.551
- GUS activity (hydrolysis rate of MUG) (HsGUS (human GUS); [Inhibitor 2] =10 μM, [MUG] 0.2 mM): 1388.11 and 1357.62
- GUS activity (hydrolysis rate of MUG) (HsGUS (human GUS); [Inhibitor 2] =10 μM, [MUG] 0.4 mM): 2139.7 and 2292.26
- GUS activity (hydrolysis rate of MUG) (HsGUS (human GUS); [Inhibitor 2] =10 μM, [MUG] 0.6 mM): 2815.06 and 3009.55
- GUS activity (hydrolysis rate of MUG) (HsGUS (human GUS); [Inhibitor 2] =10 μM, [MUG] 0.8 mM): 3419.24 and 3416.94

From article PMC7933434, “Entropy-driven binding of gut bacterial β-glucuronidase inhibitors ameliorates irinotecan-induced toxicity” (Communications Biology, 2021)
